{
  "source": "patent US20110166066A1",
  "about": "“CATESTATIN (CST) AND ITS VARIANTS FOR TREATMENT OF CARDIOVASCULAR AND METABOLIC DISORDERS” (priority 2008, published 2011)",
  "key": {"ERK1/2": {"test_system": "ERK1/2", "experiment": "Immunoblot of phosphorylated ERK1/2 in WT-CST perfused hearts", "set-up": "species or system rat", "conditions": "110 nM", "procedure": "Cardiac signaling—Hearts were perfused with or without 110 nM WT-Cts as before. At the end of experiment hearts were snap frozen under liquid nitrogen and homogenized with 1 ml of ice cold 0.2 M sucrose, Tris maleate (pH 7.0) buffer supplemented with 2 mM EDTA, pH 8.0, 1 mM sodium orthovanadate, 10 mM sodium pyrophosphate, 1 mM phenylmethylsulfonyl fluoride, 10 μg/ml leupeptin, 10 μg/ml aprotinin and 0.1 mM 3-isobutyl-1-methylxanthine. SR membrane fractions were isolated from cytosolic proteins as described before (27). Protein content was determined by Bradford assay (BIO-RAD) and 100 μg of cytosolic protein was subjected to SDS-PAGE immunoblot analysis for phosphorylated-ERK, total ERK (P-ERK and T-ERK; Santa Cruz, Calif.). […]\nStatistics—Data are expressed as the mean±SEM. Curve fitting was accomplished in the program Kaleidagraph (Synergy Software, Reading, Pa.). […] For analysis of phosphorylated proteins, levels were quantified using Bio-Rad QuantifyOne and volumes of phosphorylated proteins were divided by the levels of non-phosphorylated proteins to calculate fold activation. Stimulation of protein activity was expressed as fold increase over vehicle-treated control. The means and S.E.M. were calculated for each treatment. […]"}, "[1]": {"test_system": "Langendorff perfused rat heart", "experiment": "Isoproterenol stimulated Langendorff heart preparations", "procedure": "Isoproterenol stimulated preparations—Cardiac preparations were stabilized for 20 min with KHs and then perfused with 5 nM ISO for 10 min. ISO was washed-out with KHs. After returning to control conditions, each heart was perfused with KHs containing a single concentration of WT-Cts […] or G364S-Cts (200 nM) with 5 nM ISO for a further 10 min.\nTo further describe the antagonistic action of either WT-Cts (33 nM), P370L-Cts (110 nM) or G364S-Cts (200 nM) against ISO-dependent stimulation, dose-response curves were generated by perfusing the heart preparations with KHs enriched with increasing concentrations of ISO (0.1 nM to 1 μM) alone. These curves were then compared to those obtained by exposing other cardiac preparations to the same perfusion medium containing increasing concentrations of ISO (0.1 nM to 1 μM) plus a single concentration of either WT-Cts (33 nM) or P370L-Cts (110 nM) or G364S-Cts (200 nM).\nStatistics—Data are expressed as the mean±SEM. Curve fitting was accomplished in the program Kaleidagraph (Synergy Software, Reading, Pa.). Peptide EC50 and IC50 values were interpolated as the concentration that achieved 50% stimulation and inhibition, respectively. For analysis of phosphorylated proteins, levels were quantified using Bio-Rad QuantifyOne and volumes of phosphorylated proteins were divided by the levels of non-phosphorylated proteins to calculate fold activation. Stimulation of protein activity was expressed as fold increase over vehicle-treated control. The means and S.E.M. were calculated for each treatment. Multiple comparisons were made using either one-way ANOVA followed by Bonferroni's post-hoc test or two-way ANOVA. Statistical significance was concluded at p<0.05. Statistics were computed with the program InStat (GraphPad Software, Inc., San Diego, Calif.).\nTo characterize the inhibitory action of either WT-CST (11, 33 or 110 nM), G364S-CST (200 nM) or P370L-CST (110 nM) toward ISO-dependent stimulation of cardiac function, heart preparations were perfused with KHs containing increasing concentrations of ISO (0.1 nM to 1 μM) either alone or in combination with one of the three CST variants."}, "[2]": {"test_system": "WT and Chga knockout (KO) mice", "experiment": "Response to PE or SNP and baroreflex sensitivity in unconscious mice", "format": "in vivo", "conditions": "KO mice, CST 40 μg/g bw iv", "procedure": "Unconscious mice. Surgical procedures for hemodynamic measurements: Hemodynamic evaluation in both WT and KO mice was performed under general anesthesia [ketamine (100 mg/kg) and xylazine (2.5 mg/kg)] while connected to a ventilator. LV pressure was monitored by Millar micromanometer catheter of size 1.4 French (0.46 mm; Millar Instruments, Houston, Tex.); it was inserted into the LV where phasic and mean pressure was continuously monitored (Gould, Cleveland, Ohio). A venous catheter (MicroRenathane tube MRE-033; Braintree Laboratories, Braintree, Mass.) is implanted on right femoral vein for injection of peptide and other reagents. All physiologic signals were acquired by WINDAQ (Dataq Instruments, Akron, Ohio) and analyzed by BP-Analysis software (developed for own laboratory).\nAssessment of baroreflex sensitivity (BRS): BRS (in milliseconds per mmHg) was assessed by both high-pressure [phenylephrine (PE) bolus] and low-pressure [sodium nitroprusside (SNP) bolus] stimuli in unconscious mice. Although conscious animals provide optimal physiological data, a host of undesirable signals are triggered by physical activities, and sleep cycle alterations in behavioral state. Therefore, we have chosen to conduct the experiments in unconscious mice to avoid some of the pitfalls encountered in awake animals. The absolute changes of HR in response to changes in SBP induced by PE or SNP were subjected to linear regression analysis to determine BRS. To test the effect of CST on BRS in KO mice, CST was injected (40 μg/g bw iv) 30 min before the injection of PE or SNP through the catheter implanted into the femoral vein.\nBRS to high-pressure stimulus. High pressure BRS was evaluated by recording diminution of HR in response to PE-induced hypertension. Changes in SBP and HR were recorded continuously for 0.5 min after a bolus injection of PE (0.005 μg/g bw iv). This dose was selected from a preliminary dose-response study (0.001-0.05 μg/g bw iv).\nBRS to low-pressure stimulus. This was evaluated by recording increments in HR in response to SNP-induced fall in BP. Changes in SBP and HR were recorded continuously for 0.5 min after a bolus injection of SNP (0.05 μg/g bw iv). This dose was selected from a preliminary dose-response study (0.01-0.1 μg/g bw iv)."}},
  "note": "No end group written: not given here.",
  "data": [
    {"sequence": "SSMKLSFRARAYGFRGPGPQL [WT-CST, catestatin]", "values": [
      {"measurement": "Phosphorylation of ERK1/2", "setting": "ERK1/2", "result": "inhibited"},
      {"measurement": "Type of antagonism against ISO", "setting": "[1]", "result": "non-competitive type of antagonism"},
      {"measurement": "Block of ISO-dependent +(LVdP/dT)max", "setting": "[1]; ISO 5 nM", "result": "~90", "unit": "%"},
      {"measurement": "ISO induced coronary dilation", "setting": "[1]; ISO 5 nM", "result": "blocked"},
      {"measurement": "ISO-induced positive lusitropism", "setting": "[1]; ISO 5 nM", "result": "blocked"},
      {"measurement": "Rank order of potency against ISO", "setting": "[1]; ISO 5 nM", "result": "Order of potency: WT-CST > G364S-CST > P370L-CST"},
      {"measurement": "ISO stimulatory effect on LVP", "setting": "[1]; ISO 5 nM, measured at 5 min", "result": "abolished"},
      {"measurement": "Coronary pressure (ISO alone or ISO + peptide)", "setting": "[1]; Table 3, ISO 5 nM", "result": "Abolished"},
      {"measurement": "Inotropism (ISO alone or ISO + peptide)", "setting": "[1]; Table 3, ISO 5 nM", "result": "Abolished"},
      {"measurement": "Lusitropism (ISO alone or ISO + peptide)", "setting": "[1]; Table 3, ISO 5 nM", "result": "Abolished"},
      {"measurement": "Dampened baroreflex slope", "setting": "[2]", "result": "restored"}
    ]}
  ]
}
